The source of these data is US20240002365A1, “PYRIDAZINE AND 1,2,4-TRIAZINE DERIVATIVES AS FGFR KINASE INHIBITORS” (BETA PHARMA, INC., priority 2020, published 2024).

The assay has as its target FGFR1 (Homo sapiens (Human), UniProt P11362). In words: RBC NanoBRET Assay for Target Engagement in HEK293 cells transfected with FGFR1-NanoLuc Fusion vector. The class given is cell-based. As to conditions: 1 hour, tracer K5 1 μM. Here is the method: Cellular Assay. The RBC NanoBRET Assay for Target Engagement was performed by Reaction Biology Corporation, 1 Great Valley Parkway, Suite 2 Malvern, PA 19355, USA. The assay was conducted in HEK293 cells transiently transfected with FGFR1-NanoLuc Fusion vector. The HEK293 cells (ATCC) were transfected with 1 μg of FGFR1-NanoLuc Fusion vector in 384-well format and the transfected cells were subsequently treated with the test compounds (starting at 10 μM, 10-dose with 3-fold dilution) for 1 hour using CTx-0294885 as the reference standard and K5 (1 μM) was used as the tracer. FGFR1 target engagement was measured and the curve fits were performed only when % NanoBret signal at the highest concentration of compounds was less than 55%.
A general note: BRET reads energy transfer from a luciferase to a nearby fluorophore.

Sequence of FGFR1 (P11362 22-822): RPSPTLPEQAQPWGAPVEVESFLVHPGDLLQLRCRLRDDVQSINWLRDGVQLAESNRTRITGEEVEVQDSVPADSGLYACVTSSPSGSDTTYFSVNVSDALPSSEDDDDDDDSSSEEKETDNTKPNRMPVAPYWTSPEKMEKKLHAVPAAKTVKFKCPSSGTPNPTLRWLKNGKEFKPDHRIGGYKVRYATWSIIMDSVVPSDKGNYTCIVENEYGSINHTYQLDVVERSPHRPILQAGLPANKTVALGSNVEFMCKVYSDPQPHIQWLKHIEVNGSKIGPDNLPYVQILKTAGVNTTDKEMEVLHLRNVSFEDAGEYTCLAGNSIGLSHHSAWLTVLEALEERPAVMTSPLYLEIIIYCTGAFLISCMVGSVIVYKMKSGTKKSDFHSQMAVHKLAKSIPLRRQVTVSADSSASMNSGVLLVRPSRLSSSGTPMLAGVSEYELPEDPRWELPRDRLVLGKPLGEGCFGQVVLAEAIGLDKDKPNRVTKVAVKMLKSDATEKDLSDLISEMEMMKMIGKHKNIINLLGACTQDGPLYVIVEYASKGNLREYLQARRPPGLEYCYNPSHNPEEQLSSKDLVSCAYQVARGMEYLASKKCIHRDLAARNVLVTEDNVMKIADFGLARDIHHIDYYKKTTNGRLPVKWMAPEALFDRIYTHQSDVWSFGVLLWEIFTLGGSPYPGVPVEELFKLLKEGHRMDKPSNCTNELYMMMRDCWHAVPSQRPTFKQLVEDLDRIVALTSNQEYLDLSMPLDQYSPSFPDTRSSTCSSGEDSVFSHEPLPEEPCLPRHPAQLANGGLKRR

In general, IC50 refers to the concentration at which inhibition is half-maximal. Low readings indicate greater potency in that assay, high ones weaker potency in that assay. In turn, `CNC(=O)c1ccccc1Nc1nc(Nc2ccc(N3CCNCC3)cc2)ncc1Cl` [CTx-0294885, reference compound] registered an IC50 of 35 nM.
